Measured values: ChEMBL document CHEMBL5500384, “New synergistic benzoquinone scaffolds as inhibitors of mycobacterial cytochrome bc1 complex to treat multi-drug resistant tuberculosis” (Eur J Med Chem, 2024)

Key:
[1] = Cytotoxicity against african green monkey Vero cells assessed as cell viability at 3.125 ug/ml by MTT assay; type: toxicity, cell-based; conditions: chlorocebus sabaeus, at 3.125 µg/mL, read-out: Activity
[2] = Hepatotoxicity in Albino mouse assessed as change in central vein at 50 to 2000 mg/kg, po measured after 14 days; type: toxicity, organism-based; conditions: in vivo, 336 h, dose 50-2000 mg/kg, time 14 day
[3] = Renal toxicity in Albino mouse assessed as structural absorbability abnormalities at 50 to 2000 mg/kg, po measured after 14 days; type: organism-based; conditions: in vivo, 336 h, dose 50-2000 mg/kg, time 14 day
[4] = Pulmonary toxicity in Albino mouse assessed as change in squamous pneumocytes at 50 to 2000 mg/kg, po measured after 14 days; type: organism-based; conditions: in vivo, 336 h, dose 50-2000 mg/kg, time 14 day
[5] = Hepatotoxicity in Albino mouse assessed as change in hepatocytes at 50 to 2000 mg/kg, po measured after 14 days; type: toxicity, organism-based; conditions: in vivo, 336 h, dose 50-2000 mg/kg, time 14 day
[6] = Renal toxicity in Albino mouse assessed as change in proximal convoluted tubules at 50 to 2000 mg/kg, po measured after 14 days; type: organism-based; conditions: in vivo, 336 h, dose 50-2000 mg/kg, time 14 day
[7] = Renal toxicity in Albino mouse assessed as change in Bowman's capsule at 50 to 2000 mg/kg, po measured after 14 days; type: organism-based; conditions: in vivo, 336 h, dose 50-2000 mg/kg, time 14 day
[8] = Renal toxicity in Albino mouse assessed as change in distal convoluted tubules at 50 to 2000 mg/kg, po measured after 14 days; type: organism-based; conditions: in vivo, 336 h, dose 50-2000 mg/kg, time 14 day
[9] = Hepatotoxicity in Albino mouse assessed as change in portal tracks at 50 to 2000 mg/kg, po measured after 14 days; type: toxicity, organism-based; conditions: in vivo, 336 h, dose 50-2000 mg/kg, time 14 day
[10] = Acute toxicity in Albino mouse assessed as change in eosinophils at 50 to 2000 mg/kg, po measured after 14 days (reference value: 3%); type: organism-based; conditions: in vivo, 336 h, dose 50-2000 mg/kg, time 14 day
[11] = Acute toxicity in Albino mouse assessed as change in SGOT count at 50 to 2000 mg/kg, po measured after 14 days (reference value: 42 IU/L); type: organism-based; conditions: in vivo, 336 h, dose 50-2000 mg/kg, time 14 day
[12] = Renal toxicity in Albino mouse assessed as change in renal corpuscles at 50 to 2000 mg/kg, po measured after 14 days; type: organism-based; conditions: in vivo, 336 h, dose 50-2000 mg/kg, time 14 day
[13] = Pulmonary toxicity in Albino mouse assessed as appearance of goblet cells at 50 to 2000 mg/kg, po measured after 14 days; type: organism-based; conditions: in vivo, 336 h, dose 50-2000 mg/kg, time 14 day
[14] = Hepatotoxicity in Albino mouse assessed as change in bile duct at 50 to 2000 mg/kg, po measured after 14 days; type: toxicity, organism-based, Liver; conditions: in vivo, 336 h, dose 50-2000 mg/kg, time 14 day
[15] = Acute toxicity in Albino mouse assessed as change in RBC count measured per million cells at 50 to 2000 mg/kg, po measured after 14 days (reference value: 9.15 microL); type: organism-based, Erythrocyte; conditions: in vivo, 336 h, dose 50-2000 mg/kg, time 14 day
[16] = Acute toxicity in Albino mouse assessed as change in LDH level at 50 to 2000 mg/kg, po measured after 14 days (reference value: 1052 IU/L); type: organism-based; conditions: in vivo, 336 h, dose 50-2000 mg/kg, time 14 day
[17] = Cytotoxicity against african green monkey Vero cells by MTT assay; type: toxicity, cell-based; conditions: chlorocebus sabaeus
[18] = Renal toxicity in Albino mouse assessed as change in tubular capillaries at 50 to 2000 mg/kg, po measured after 14 days; type: organism-based; conditions: in vivo, 336 h, dose 50-2000 mg/kg, time 14 day
[19] = Cytotoxicity against african green monkey Vero cells assessed as cell viability at 6.25 ug/ml by MTT assay; type: toxicity, cell-based; conditions: chlorocebus sabaeus, at 6.25 µg/mL, read-out: Activity
[20] = Renal toxicity in Albino mouse assessed as extravasation of RBC at 50 to 2000 mg/kg, po measured after 14 days; type: organism-based, Erythrocyte; conditions: in vivo, 336 h, dose 50-2000 mg/kg, time 14 day
[21] = Cytotoxicity against african green monkey Vero cells assessed as cell viability at 50 ug/ml by MTT assay; type: toxicity, cell-based; conditions: chlorocebus sabaeus, at 50 µg/mL, read-out: Activity
[22] = Hepatotoxicity in Albino mouse assessed as change in hepatic artery at 50 to 2000 mg/kg, po measured after 14 days; type: toxicity, organism-based, Liver; conditions: in vivo, 336 h, dose 50-2000 mg/kg, time 14 day
[23] = Acute toxicity in po dosed Albino mouse assessed as mortality after 14 days; type: organism-based; conditions: in vivo, time 14 day
[24] = Acute toxicity in Albino mouse assessed as change in ALP level at 50 to 2000 mg/kg, po measured after 14 days (reference value: 28 IU/L); type: organism-based; conditions: in vivo, 336 h, dose 50-2000 mg/kg, time 14 day
[25] = Pulmonary toxicity in Albino mouse assessed as change in alveoli structure at 50 to 2000 mg/kg, po measured after 14 days; type: organism-based; conditions: in vivo, 336 h, dose 50-2000 mg/kg, time 14 day
[26] = Acute toxicity in Albino mouse assessed as change in ESR at 50 to 2000 mg/kg, po measured after 14 days (reference value: 10 millimeter); type: organism-based; conditions: in vivo, 336 h, dose 50-2000 mg/kg, time 14 day
[27] = Acute toxicity in Albino mouse assessed as mortality at 300 mg/kg, po after 5 to 8 hrs; type: organism-based; conditions: in vivo, time 5-8 hrs
[28] = Acute toxicity in Albino mouse assessed as change in neutrophils at 50 to 2000 mg/kg, po measured after 14 days (reference value: 75%); type: organism-based; conditions: in vivo, 336 h, dose 50-2000 mg/kg, time 14 day
[29] = Renal toxicity in Albino mouse assessed as change in renal tubules at 50 to 2000 mg/kg, po measured after 14 days; type: organism-based; conditions: in vivo, 336 h, dose 50-2000 mg/kg, time 14 day
[30] = tested on: Mycobacterium tuberculosis; assay: Antitubercular activity against Mycobacterium tuberculosis H37Rv incubated for 5 days by microtiter plate method; type: functional; conditions: 120 h, time 5 day
[31] = Cytotoxicity against african green monkey Vero cells assessed as cell viability at 100 ug/ml by MTT assay; type: toxicity, cell-based; conditions: chlorocebus sabaeus, at 100 µg/mL, read-out: Activity
[32] = Acute toxicity in Albino mouse assessed as change in total leucocyte count at 50 to 2000 mg/kg, po measured after 14 days (reference value: 7400 mm3); type: organism-based; conditions: in vivo, 336 h, dose 50-2000 mg/kg, time 14 day
[33] = Cytotoxicity against african green monkey Vero cells assessed as cell viability at 25 ug/ml by MTT assay; type: toxicity, cell-based; conditions: chlorocebus sabaeus, at 25 µg/mL, read-out: Activity
[34] = Acute toxicity in Albino mouse assessed as mortality at 50 mg/kg, po after 14 days; type: organism-based; conditions: in vivo, 336 h, time 14 day
[35] = Acute toxicity in Albino mouse assessed as mortality at 2000 mg/kg, po after 2 to 4 hrs; type: organism-based; conditions: in vivo, time 2-4 hrs
[36] = Hepatotoxicity in Albino mouse assessed as change in portal vein at 50 to 2000 mg/kg, po measured after 14 days; type: toxicity, organism-based; conditions: in vivo, 336 h, dose 50-2000 mg/kg, time 14 day
[37] = Pulmonary toxicity in Albino mouse assessed as appearance of cilia at 50 to 2000 mg/kg, po measured after 14 days; type: organism-based; conditions: in vivo, 336 h, dose 50-2000 mg/kg, time 14 day
[38] = Acute toxicity in Albino mouse assessed as change in serum urea level at 50 to 2000 mg/kg, po measured after 14 days (reference value: 46 mg/dl); type: organism-based; conditions: in vivo, 336 h, dose 50-2000 mg/kg, time 14 day
[39] = Acute toxicity in Albino mouse assessed as change in platelet count at 50 to 2000 mg/kg, po measured after 14 days (reference value: 3.24 mm3); type: organism-based; design: unit not given here; conditions: in vivo, 336 h, dose 50-2000 mg/kg, time 14 day
[40] = Cytotoxicity against african green monkey Vero cells assessed as cell viability at 12.5 ug/ml by MTT assay; type: toxicity, cell-based; conditions: chlorocebus sabaeus, at 12.5 µg/mL, read-out: Activity
[41] = Acute toxicity in Albino mouse assessed as change in hemoglobin level at 50 to 2000 mg/kg, po measured after 14 days (reference value: 12.8 g/dl); type: organism-based; conditions: in vivo, 336 h, dose 50-2000 mg/kg, time 14 day
[42] = Pulmonary toxicity in Albino mouse assessed as change in alveolar sacs at 50 to 2000 mg/kg, po measured after 14 days; type: organism-based; conditions: in vivo, 336 h, dose 50-2000 mg/kg, time 14 day
[43] = Acute toxicity in Albino mouse assessed as change in SGPT count at 50 to 2000 mg/kg, po measured after 14 days (reference value: 52 IU/L); type: organism-based; conditions: in vivo, 336 h, dose 50-2000 mg/kg, time 14 day
[44] = Acute toxicity in Albino mouse assessed as change in lymphocytes at 50 to 2000 mg/kg, po measured after 14 days (reference value: 21%); type: organism-based; conditions: in vivo, 336 h, dose 50-2000 mg/kg, time 14 day
[45] = Acute toxicity in Albino mouse assessed as change in serum creatine level at 50 to 2000 mg/kg, po measured after 14 days (reference value: 0.9 mg/dl); type: organism-based; conditions: in vivo, 336 h, dose 50-2000 mg/kg, time 14 day
[46] = Acute toxicity in Albino mouse assessed as change in monocytes at 50 to 2000 mg/kg, po measured after 14 days (reference value: 1%); type: organism-based; conditions: in vivo, 336 h, dose 50-2000 mg/kg, time 14 day
[47] = Pulmonary toxicity in Albino mouse assessed as change in bronchi structure at 50 to 2000 mg/kg, po measured after 14 days; type: organism-based; conditions: in vivo, 336 h, dose 50-2000 mg/kg, time 14 day

O=C1C(Cl)=C(N2C(=O)C(Cl)C2c2ccc(Cl)cc2)C(=O)c2ccccc21 (centres undefined)
viability at 3.125 ug/ml [1]: 100%
Activity [2]: Non-Toxic
Activity [3]: Non-Toxic
Activity [4]: Non-Toxic
Activity [5]: Non-Toxic
Activity [6]: Non-Toxic
Activity [7]: Non-Toxic
Activity [8]: Non-Toxic
Activity [9]: Non-Toxic
Activity [10]: 4%
Activity [11]: 136.54 IU/L
Activity [12]: Non-Toxic
Activity [13]: Non-Toxic
Activity [14]: Non-Toxic
Activity [15]: 9.6
Activity [16]: 134.22 IU/L
Activity [17]: Dose-Dependent Effect
Activity [18]: Non-Toxic
viability at 6.25 ug/ml [19]: 100%
Activity [20]: Non-Toxic
viability at 50 ug/ml [21]: 24.2%
Activity [22]: Non-Toxic
LD50 at 336 h [23]: 50 mg/kg
Activity [24]: 433.93 IU/L
Activity [25]: Non-Toxic
Activity [26]: 14 millimeter/hr
Activity [27]: Toxic
Activity [28]: 70%
Activity [29]: Non-Toxic
MIC [30]: 7.69 µM
viability at 100 ug/ml [31]: 8.6%
Activity [32]: 9400 mm3
viability at 25 ug/ml [33]: 38%
Activity [34]: Non-Toxic
Activity [35]: Toxic
Activity [36]: Non-Toxic
Activity [37]: Non-Toxic
Activity [38]: 56.19 mg/dL
Activity [39]: 6.1
viability at 12.5 ug/ml [40]: 69.1%
Activity [41]: 13.1 g/dL
Activity [42]: Non-Toxic
Activity [43]: 42.09 IU/L
Activity [44]: 44%
Activity [45]: 0.41 mg/dL
Activity [46]: 1%
Activity [47]: Non-Toxic

O=C1C(Cl)=C(/N=C/c2ccccc2O)C(=O)c2ccccc21
MIC [30]: 12.5 µg/mL

NNC(=O)c1ccncc1 [ISONIAZID]
MIC [30]: 1.82 µM
